This passage reports remaining activity results from article PMC5564600 (Oncotarget, 2017).

Where two headings read alike, the source gives them in different places.

Assay in all cases: biochemical
Holding throughout (format): binding

For experiment [1], the target named is T1, panel of 442 kinases (Homo sapiens, UniProt O60331).
T1 construct: purchased Ambit Biosciences (scanMAXX KINOMEscan)
As to conditions: kinase PIP5K1C; for remaining activity at 1 µM: read-out: % of control at 1 µM.

Experiment [2] has as its target T2, panel of 442 kinases (Homo sapiens, UniProt O76039).
T2 construct: purchased Ambit Biosciences (scanMAXX KINOMEscan)
T2 sequence (O76039 1-960): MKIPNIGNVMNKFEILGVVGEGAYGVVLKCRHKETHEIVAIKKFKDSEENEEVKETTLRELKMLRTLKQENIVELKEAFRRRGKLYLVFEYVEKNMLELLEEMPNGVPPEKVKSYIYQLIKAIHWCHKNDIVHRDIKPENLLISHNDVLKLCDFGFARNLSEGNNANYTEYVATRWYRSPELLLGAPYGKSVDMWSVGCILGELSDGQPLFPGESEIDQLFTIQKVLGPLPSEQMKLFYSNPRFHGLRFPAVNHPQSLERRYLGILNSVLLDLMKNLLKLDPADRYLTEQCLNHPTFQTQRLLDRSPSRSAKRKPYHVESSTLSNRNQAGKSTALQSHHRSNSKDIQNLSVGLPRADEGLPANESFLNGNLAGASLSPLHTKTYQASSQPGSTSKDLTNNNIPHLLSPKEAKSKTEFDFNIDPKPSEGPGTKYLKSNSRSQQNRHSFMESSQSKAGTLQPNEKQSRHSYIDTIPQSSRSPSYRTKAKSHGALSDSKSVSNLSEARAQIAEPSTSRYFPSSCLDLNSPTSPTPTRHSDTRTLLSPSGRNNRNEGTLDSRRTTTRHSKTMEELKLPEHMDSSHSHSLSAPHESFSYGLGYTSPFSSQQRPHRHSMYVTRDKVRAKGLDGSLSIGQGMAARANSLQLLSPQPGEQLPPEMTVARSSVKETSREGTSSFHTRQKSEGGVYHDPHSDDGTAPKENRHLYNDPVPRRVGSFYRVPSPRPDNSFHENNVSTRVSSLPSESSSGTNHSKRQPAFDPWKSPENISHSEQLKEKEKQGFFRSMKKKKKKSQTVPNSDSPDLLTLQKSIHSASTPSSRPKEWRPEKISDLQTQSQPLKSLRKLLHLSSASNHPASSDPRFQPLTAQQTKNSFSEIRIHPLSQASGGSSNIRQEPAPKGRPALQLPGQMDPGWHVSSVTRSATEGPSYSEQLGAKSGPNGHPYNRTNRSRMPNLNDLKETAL
The conditions noted are these: CDKL5; for remaining activity at 1 µM: read-out: % of control at 1 µM.

Experiment [3] concerns the target T3, panel of 442 kinases (Homo sapiens, UniProt P00519, M351T).
T3 construct: purchased Ambit Biosciences (scanMAXX KINOMEscan)
As to conditions: ABL1(M351T)-phosphorylated; for remaining activity at 1 µM: read-out: % of control at 1 µM.

The target of experiment [4] is T4, panel of 442 kinases (Homo sapiens, UniProt P52564).
T4 construct: purchased Ambit Biosciences (scanMAXX KINOMEscan)
T4 sequence (P52564 1-334): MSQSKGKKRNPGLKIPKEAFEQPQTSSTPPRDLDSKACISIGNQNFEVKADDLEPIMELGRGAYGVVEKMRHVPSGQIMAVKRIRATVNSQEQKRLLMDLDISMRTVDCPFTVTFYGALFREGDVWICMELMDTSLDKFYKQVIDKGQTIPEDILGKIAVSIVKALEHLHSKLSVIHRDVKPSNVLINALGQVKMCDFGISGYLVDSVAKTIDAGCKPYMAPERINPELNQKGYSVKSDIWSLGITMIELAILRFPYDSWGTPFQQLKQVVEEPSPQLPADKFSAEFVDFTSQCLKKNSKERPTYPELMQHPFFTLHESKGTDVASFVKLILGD
As to conditions: kinase MEK6; for remaining activity at 1 µM: read-out: % of control at 1 µM.

Experiment [5] has as its target T5, panel of 442 kinases (Homo sapiens, UniProt Q15349).
T5 construct: purchased Ambit Biosciences (scanMAXX KINOMEscan)

Experiment [6] deals with T6, panel of 442 kinases (Homo sapiens, UniProt Q16832).
T6 construct: purchased Ambit Biosciences (scanMAXX KINOMEscan)
T6 sequence (Q16832 22-855): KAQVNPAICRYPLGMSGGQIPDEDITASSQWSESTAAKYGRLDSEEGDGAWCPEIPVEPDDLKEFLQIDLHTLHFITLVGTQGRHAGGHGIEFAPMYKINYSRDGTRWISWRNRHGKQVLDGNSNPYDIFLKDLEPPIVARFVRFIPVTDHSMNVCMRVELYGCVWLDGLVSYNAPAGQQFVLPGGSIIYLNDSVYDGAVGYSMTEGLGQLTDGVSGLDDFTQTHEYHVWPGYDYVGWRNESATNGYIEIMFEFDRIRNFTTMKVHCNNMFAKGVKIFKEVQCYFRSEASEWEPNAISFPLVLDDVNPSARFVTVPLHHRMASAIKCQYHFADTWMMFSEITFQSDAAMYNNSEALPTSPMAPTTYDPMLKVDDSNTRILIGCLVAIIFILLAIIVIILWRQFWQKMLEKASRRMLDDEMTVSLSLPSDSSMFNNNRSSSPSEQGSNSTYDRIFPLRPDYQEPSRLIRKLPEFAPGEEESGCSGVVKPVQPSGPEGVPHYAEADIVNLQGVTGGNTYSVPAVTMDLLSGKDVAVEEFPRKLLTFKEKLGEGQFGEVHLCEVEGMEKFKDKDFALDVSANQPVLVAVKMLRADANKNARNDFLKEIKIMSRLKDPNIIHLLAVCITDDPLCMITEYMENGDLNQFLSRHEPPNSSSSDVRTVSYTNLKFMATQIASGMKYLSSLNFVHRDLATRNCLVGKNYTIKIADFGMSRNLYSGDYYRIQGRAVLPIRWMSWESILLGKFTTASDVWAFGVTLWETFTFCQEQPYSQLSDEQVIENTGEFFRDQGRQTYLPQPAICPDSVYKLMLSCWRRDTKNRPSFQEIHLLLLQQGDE
As to conditions: DDR2; for remaining activity at 1 µM: read-out: % of control at 1 µM.

The target in experiment [7] is T7, panel of 442 kinases (Homo sapiens, UniProt Q96SB4).
T7 construct: purchased Ambit Biosciences (scanMAXX KINOMEscan)
T7 sequence (Q96SB4 whole entry): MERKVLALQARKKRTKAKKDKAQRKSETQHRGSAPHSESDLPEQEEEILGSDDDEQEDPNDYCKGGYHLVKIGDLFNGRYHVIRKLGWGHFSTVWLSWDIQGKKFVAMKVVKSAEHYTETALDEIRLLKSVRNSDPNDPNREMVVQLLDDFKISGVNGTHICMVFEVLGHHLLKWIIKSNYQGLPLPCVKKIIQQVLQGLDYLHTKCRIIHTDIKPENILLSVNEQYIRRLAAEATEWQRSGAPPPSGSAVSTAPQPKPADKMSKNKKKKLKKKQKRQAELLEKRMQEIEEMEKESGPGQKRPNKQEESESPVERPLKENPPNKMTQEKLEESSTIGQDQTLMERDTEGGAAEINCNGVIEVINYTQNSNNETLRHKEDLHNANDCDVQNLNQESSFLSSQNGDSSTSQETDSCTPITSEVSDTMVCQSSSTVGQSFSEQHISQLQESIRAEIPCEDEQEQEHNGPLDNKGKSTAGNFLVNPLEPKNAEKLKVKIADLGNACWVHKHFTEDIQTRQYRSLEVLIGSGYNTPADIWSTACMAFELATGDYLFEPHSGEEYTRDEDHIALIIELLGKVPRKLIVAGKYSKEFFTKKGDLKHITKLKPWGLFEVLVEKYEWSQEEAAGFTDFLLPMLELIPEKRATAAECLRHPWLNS
The conditions noted are these: kinase SRPK1; for remaining activity at 1 µM: read-out: SRPK1 (% of control at 1 µM).

Experiment [8] addresses T8, panel of 442 kinases (Homo sapiens, UniProt Q9Y2H1).
T8 construct: purchased Ambit Biosciences (scanMAXX KINOMEscan)
The conditions noted are these: kinase NDR2; for remaining activity at 1 µM: read-out: % of control at 1 µM.

Setting [9] is: 10 µM, read-out: % of control at 10 µM.
The mark [10] stands for this setting: kinase RSK3(Kin.Dom.1-N-terminal), read-out: RSK3(Kin.Dom.1-N-terminal) (% of control at 1 µM).
The mark [11] stands for this setting: kinase RSK3(Kin.Dom.2-C-terminal), read-out: RSK3(Kin.Dom.2-C-terminal) (% of control at 1 µM).

T8 sequence (Q9Y2H1 whole entry): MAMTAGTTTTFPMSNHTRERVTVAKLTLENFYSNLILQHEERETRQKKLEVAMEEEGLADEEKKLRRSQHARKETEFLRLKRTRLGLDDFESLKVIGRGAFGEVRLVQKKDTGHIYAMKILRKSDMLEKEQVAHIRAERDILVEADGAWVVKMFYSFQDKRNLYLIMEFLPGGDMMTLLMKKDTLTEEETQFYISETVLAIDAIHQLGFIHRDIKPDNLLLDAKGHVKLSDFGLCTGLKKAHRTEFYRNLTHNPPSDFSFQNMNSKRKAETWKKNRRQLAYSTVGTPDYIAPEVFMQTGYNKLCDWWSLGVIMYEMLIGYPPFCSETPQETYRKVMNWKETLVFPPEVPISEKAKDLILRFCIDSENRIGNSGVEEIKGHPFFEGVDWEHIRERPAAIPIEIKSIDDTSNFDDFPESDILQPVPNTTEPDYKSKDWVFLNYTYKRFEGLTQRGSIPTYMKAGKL
T1 sequence (O60331 whole entry): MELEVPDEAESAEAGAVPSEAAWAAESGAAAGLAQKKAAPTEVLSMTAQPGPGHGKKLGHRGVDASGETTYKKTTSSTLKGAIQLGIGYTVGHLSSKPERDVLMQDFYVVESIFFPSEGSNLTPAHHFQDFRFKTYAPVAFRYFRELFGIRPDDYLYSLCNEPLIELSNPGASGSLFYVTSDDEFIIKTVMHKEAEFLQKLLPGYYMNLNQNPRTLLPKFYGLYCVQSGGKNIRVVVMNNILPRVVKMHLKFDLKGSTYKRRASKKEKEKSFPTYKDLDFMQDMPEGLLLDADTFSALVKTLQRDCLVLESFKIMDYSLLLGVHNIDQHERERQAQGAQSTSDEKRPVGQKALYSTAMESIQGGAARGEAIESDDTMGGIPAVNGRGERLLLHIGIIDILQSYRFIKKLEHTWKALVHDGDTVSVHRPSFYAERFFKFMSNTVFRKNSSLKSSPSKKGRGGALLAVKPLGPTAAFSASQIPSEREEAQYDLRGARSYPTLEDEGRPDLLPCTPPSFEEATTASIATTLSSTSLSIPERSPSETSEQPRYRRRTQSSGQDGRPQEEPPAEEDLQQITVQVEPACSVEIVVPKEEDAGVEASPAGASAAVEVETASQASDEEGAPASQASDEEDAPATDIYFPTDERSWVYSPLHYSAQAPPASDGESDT
T5 sequence (Q15349 whole entry): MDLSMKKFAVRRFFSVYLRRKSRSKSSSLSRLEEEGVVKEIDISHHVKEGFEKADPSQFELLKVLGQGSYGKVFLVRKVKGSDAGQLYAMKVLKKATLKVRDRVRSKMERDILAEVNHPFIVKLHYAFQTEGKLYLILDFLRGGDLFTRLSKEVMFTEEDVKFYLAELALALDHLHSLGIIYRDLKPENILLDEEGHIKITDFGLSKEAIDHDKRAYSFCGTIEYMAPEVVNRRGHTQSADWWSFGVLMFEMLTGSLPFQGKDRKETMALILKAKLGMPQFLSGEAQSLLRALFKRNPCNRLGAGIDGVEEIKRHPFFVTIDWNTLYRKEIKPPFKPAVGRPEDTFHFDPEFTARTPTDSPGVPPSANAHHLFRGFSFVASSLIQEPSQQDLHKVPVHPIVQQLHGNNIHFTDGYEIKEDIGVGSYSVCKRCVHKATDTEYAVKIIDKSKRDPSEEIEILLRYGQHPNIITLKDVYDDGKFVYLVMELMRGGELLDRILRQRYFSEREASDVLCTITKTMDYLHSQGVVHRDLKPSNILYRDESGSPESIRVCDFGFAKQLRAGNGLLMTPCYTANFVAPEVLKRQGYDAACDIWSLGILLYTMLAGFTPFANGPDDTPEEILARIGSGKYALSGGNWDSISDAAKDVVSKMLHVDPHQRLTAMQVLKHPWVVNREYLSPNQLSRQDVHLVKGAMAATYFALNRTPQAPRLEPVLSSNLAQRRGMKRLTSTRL

For the molecule `Nc1cc(C(F)(F)F)c(-c2cc(N3CCOCC3)nc(N3CCOCC3)n2)cn1` [Buparlisib], the remaining activity at 1 µM on panel of 442 kinases [1] is 55%; on panel of 442 kinases [2] it was 88%; at panel of 442 kinases [3], 90%; on panel of 442 kinases [4] it was 90%; on panel of 442 kinases [5] (setting [10]), 95%; on panel of 442 kinases [5] (setting [11]), 100%. Further, the remaining activity at 1 µM at panel of 442 kinases [6] came out at 96%; at panel of 442 kinases [7], 100%; on panel of 442 kinases [8], 90%. Also, the remaining activity at 10 µM amounted to 63% on panel of 442 kinases [1] (setting [9]); 100% on panel of 442 kinases [2] (setting [9]); 97% on panel of 442 kinases [3] (setting [9]); 85% at panel of 442 kinases [4] (setting [9]); 100% on panel of 442 kinases [5] (kinase RSK3(Kin.Dom.1-N-terminal), read-out: RSK3(Kin.Dom.1-N-terminal) (% of control at 10 µM)); 100% on panel of 442 kinases [5] (kinase RSK3(Kin.Dom.2-C-terminal), read-out: RSK3(Kin.Dom.2-C-terminal) (% of control at 10 µM)). The remaining activity at 10 µM was 84% on panel of 442 kinases [6] (setting [9]); 100% at panel of 442 kinases [7] (10 µM, read-out: SRPK1 (% of control at 10 µM)); 100% at panel of 442 kinases [8] (setting [9]).

For `Cn1c(=O)n(-c2ccc(C(C)(C)C#N)cc2)c2c3cc(-c4cnc5ccccc5c4)ccc3ncc21` [Dactolisib, 2-methyl-2-[4-(3-methyl-2-oxo-8-quinolin-3-yl-2,3-dihydroimidazo[4,5-c]quinolin-1-yl)-phenyl] propionitrile], the remaining activity at 1 µM at panel of 442 kinases [1] amounted to 100%; on panel of 442 kinases [2], 100%; on panel of 442 kinases [3], 89%; at panel of 442 kinases [4] it was 96%; on panel of 442 kinases [5] (setting [10]), 70%; on panel of 442 kinases [5] (setting [11]) it was 75%. For the same molecule, the remaining activity at 1 µM on panel of 442 kinases [6] was found to be 97%; at panel of 442 kinases [7], 88%; at panel of 442 kinases [8], 100%.

As to `FC(F)c1nc2ccccc2n1-c1nc(N2CCOCC2)nc(N2CCOCC2)n1` [ZSTK474, 2-(difluoromethyl)-1-[4,6-di(4-morpholinyl)-1,3,5-triazin-2-yl]-1H-benzimidazole], the remaining activity at 1 µM on panel of 442 kinases [1] was determined as 100%; on panel of 442 kinases [2] it was 100%; at panel of 442 kinases [3] it was 100%; on panel of 442 kinases [4], 97%; at panel of 442 kinases [5] (setting [10]), 100%; on panel of 442 kinases [5] (setting [11]) it was 100%. Also, the remaining activity at 1 µM at panel of 442 kinases [6] came to 100%; on panel of 442 kinases [7] it was 67%; at panel of 442 kinases [8] it was 100%.

`COc1ncc(-c2ccc3nccc(-c4ccnnc4)c3c2)cc1NS(=O)(=O)c1ccc(F)cc1F` [Omipalisib]: the remaining activity at 1 µM on panel of 442 kinases [1] came out at 100%; on panel of 442 kinases [2], 100%; at panel of 442 kinases [3], 94%; on panel of 442 kinases [4] it was 51%; on panel of 442 kinases [5] (setting [10]), 100%; at panel of 442 kinases [5] (setting [11]), 100%. Besides, the remaining activity at 1 µM on panel of 442 kinases [6], at panel of 442 kinases [7] and on panel of 442 kinases [8] was 100% each time.
